Results taken from paper PMC9421654, “Discovery of Substituted Di(pyridin-2-yl)-1,2,4-thiadiazol-5-amines as Novel Macrofilaricidal Compounds for the Treatment of Human Filarial Infections” (Journal of Medicinal Chemistry, 2022).
In brackets after ≈: the same amount, converted by molar mass. Like-named read-outs stand apart in the source and are kept apart here.

Columns and labels:
[1] = system: O. gutturosa adult male worms; assay: O. gutturosa adult worm ex vivo assay, motility; assay type: cell-based, Onchocerca gutturosa
Experimental: (§1) Activity against O. gutturosa adult male worms was determined using reported procedures.[7] The EC50 values were calculated using Microsoft Office Excel (2010) data analysis software. The tested compound is considered active when a motility reduction of ≥50% is observed by comparison to the untreated controls. O. gutturosa adult male worms were obtained postmortem from freshly slaughtered cattle. The worms were dissected from the nuchal ligament connective tissues of naturally infected cattle in Gambia, West Africa; the material was purchased from the International Trypanotolerance Centre, Banjul, from local butchers for use in this study. The adult worms were transferred individually to each well of a sterile 24-well (2 mL) plate (Thermo Fisher Scientific, UK) and maintained for at least 24 h in culture before use. The medium used was a minimum essential medium (MEM) with Earl’s salts and L-glutamine (Life Technologies Ltd., UK) supplemented with 10% heat inactivated newborn calf serum (Life Technologies Ltd., UK), 200 units/mL penicillin, 200 μg/mL streptomycin, and 0.5 μg/mL amphotericin B (Life Technologies Ltd., UK). Only normally active worms were used for the test, and all assays were conducted at 37 °C and 5% CO2. The positive control drug used was Immiticide (melarsomine dihydrochloride, Merial, USA). Known amounts of compounds were solubilized in 1 mL of DMSO. All stock solutions were allowed to stand at room temperature prior to use. The test items (four worms/drug concentration) were compared to untreated controls (six worms) and the positive control (two worms/drug concentration). Drug efficacy was assessed by the measurement of mean worm motility scores on a scale of 0 (immotile) to 10 (maximum) every 24 h, terminating at 120 h, using an Olympus inverted microscope. The results are reported as a percentage of the maximum score obtainable (100%) by calculating the motility index scores. The test drug is considered active when a motility reduction of ≥50% is observed by comparison to the untreated controls. […] In addition, biochemical evaluation of worm viability was assessed using MTT/formazan colorimetry. The MTT assay was carried out after the last motility reading (120 h). Single intact worms were placed in each well of a 48-well plate (Thermo Fisher Scientific, UK) containing 0.5 mL of 0.5 mg/mL MTT (Sigma, UK) in PBS solution and then incubated for 30 min at 37 °C. The worms were removed, blotted carefully, and individually transferred to separate wells of a 96-well microtiter plate, each containing 200 μL of DMSO to solubilize the formazan. After 1 h, the plate was gently agitated to disperse the color evenly and the absorbance value (optical density, OD) of the resulting formazan solution was determined at 490 nm using an absorbance microplate reader (Biotek ELx800, Thermo Fisher Scientific, UK). The results are expressed as the mean OD per drug concentration. Inhibition of formazan formation is correlated with worm damage or death.
Data S1. Onchocerca gutturosa adult male worms EC 50 Curves
Plotted using Graph Pad Prism 7.03, least square original fit, sigmoidal, 4PL
The measurement of mean worm motility every 24 h, terminating at 120 h, serial 1 in 4 drug dilutions to find
activity endpoint and produce EC50 values (geomean, n=2) for motility reduction. (4 worms per drug […]

[2] = system: O. gutturosa adult male worms; assay: O. gutturosa adult worm ex vivo assay, MTT/formazan viability; assay type: cell-based, Onchocerca gutturosa; conditions: supplement, SD in brackets in the PDF table, read-out: O. gutturosa EC50 (uM) MTT viability inhibition
Experimental: as §1

[3] = Kinetic solubility measurement; assay type: physicochemical; conditions: 10 mM DMSO stock solutions
Experimental: Kinetic Solubility Measurement: The standard kinetic solubility assay runs on […] concentration range using 10 mM DMSO stock solutions for plating. Single point calibration assay runs in duplicates. Concentration of standards: […] DMSO solutions prepared by diluting 10 mM stock, solution with DMSO. Concentration of samples: 200 µM, 4 µl 10 mM DMSO stock solution diluted with the appropriate buffer to […]. DMSO content:
2%. Buffers: pH=7.4 (0.1M Potassium phosphate buffer, diluted from Sigma 1M P3619-1GA to 0.1 M with MilliQ water), pH=2.2 (0.1M- NaCl pH adjusted with 0.1N HCL), pH=6.8 (0.1M - KH2PO4/K2HPO4), pH=5 (4 .04g of NaOH (Pellets), 8.65g of Glacial Acetic Acid, 11.874g of NaCl. In in 1 liter water. Adjusted to pH to 5 with either 1N NaOH or 1N HCl). The controls were plated from the standard 10 mM DMSO stock and run on the standard concentration (200µM) range of the assay. Incubation time: 24 hours shaking at […] in Millipore Multiscreen HTS filter plate for Aqueous Solubility Assay (MSSLBPC50), on room temperature.
After incubation time filtration with positive pressure manifold was performed. […]

[4] = LogD measurement (octanol-water); assay type: physicochemical
Experimental: LogD Measurement: Measurement of octanol-water distribution coefficient of samples using a […]
stock solutions for plating. Aqueous Phase: 100mM Buffer, pH=7.4 (0.1M Potassium phosphate buffer, diluted from Sigma 1M P3619-1GA to 0.1 M with MilliQ water), pH=2.2 (0.1M- NaCl pH adjusted with 0.1N HCL), pH=6.8 (0.1M - KH2PO4/K2HPO4), pH=5 (4 .04g of NaOH (Pellets), 8.65g of Glacial Acetic Acid, 11.874g of NaCl. In in 1 liter water. Adjusted to pH to 5 with either 1N NaOH or 1N HCl); Organic Phase: 1-Octanol (O021). Sample Concentration:
1000uM, […] 10 mM DMSO stock solution diluted in […] of organic Phase and […] of aqueous Phase. DMSO content: 10%. The controls were plated from the standard 10 mM DMSO stock and run on the standard concentration ([…]) range of the assay. Incubation time:
Sonication for 30 minutes followed by 24 hours shaking at 750 rpm in 96 deep well plate (VWR

[5] = Liver S9 metabolic stability assay, rat; assay type: in vitro ADME; conditions: 3 μM, 60 min
Experimental: (§2) Liver S9 Metabolic Stability Assay: Incubations were performed at 37 °C in a Dubnoff Shaking water bath using 2 mL 96-well incubation plates. Rat and human S9 protein concentrations were 0.75 mg/ml and 1.2 mg/ml, respectively. The final concentrations of NADPH, UDPGA, and GSH were 1, 0.5, and 2.5 mM, and the final concentration of PAPS was 0.05 mg/ml. Substrate concentrations were 3µM, incubation time was 60 minutes, and all tests were done in triplicate. The incubation was conducted in 200 mM Tris buffer containing 2 mM magnesium chloride, pH=7.4 and the total incubation volume was 0.5 ml. Samples were analysed via LC-MS/MS and reported as percentage remaining after incubation for 60 minutes. […]

[6] = Liver S9 metabolic stability assay, human; assay type: in vitro ADME; conditions: 3 μM, 60 min
Experimental: as §2

[7] = Onchocerca gutturosa, read-out: O. gutturosa EC50 μM (SD), ex vivo adult worm motility reduction, SD in brackets
[8] = Onchocerca gutturosa, read-out: O. gutturosa EC50 (uM) motility inhibition, supplement, SD in brackets in the PDF table
[9] = supplement, read-out: measured logD

SMILES	EC50 [1, 7] [µM]	EC50 [1, 8] [µM]	EC50 ([2]; Onchocerca gutturosa) [µM]	EC50 [2] [µM]	solubility kinetic at 24 h [3] [µM]	logD at 24 h ([4]; pH 7.4, read-out: logD)	logD at 24 h [4, 9]	Rat S9 metabolic stability [5] [% remaining]	Human S9 metabolic stability [6] [% remaining]	EC50 ([1]; read-out: O. gutturosa EC50 (uM) motility inhibition, supplement, SD in brackets in the PDF table) [µM]
CC(C)c1cnc(Nc2nc(-c3ncccc3OC3CC3)ns2)cc1C(F)(F)F [Compound 38, 3-(3-Cyclopropoxypyridin-2-yl)-N-(5-isopropyl-4-(trifluoromethyl)pyridin-2-yl)-1,2,4-thiadiazol-5-amine]	0.02	0.017	< 0.02	< 0.015	1.03 (≈ 0.434 µg/mL)	2.95	2.95	93	100	
Cc1cccnc1Nc1nc(-c2cnc(OC(C)C)cn2)ns1 [Compound 39, 3-(5-Isopropoxypyrazin-2-yl)-N-(3-methyl-2-pyridyl)-1,2,4-thiadiazol-5-amine]	0.29	0.286	1.1		2.1 (≈ 0.69 µg/mL)	3.1	3.1	74	81	
Cc1nccnc1Nc1nc(-c2ccc(OC(C)C)cn2)ns1 [Compound 41, 3-(5-Isopropoxy-2-pyridyl)-N-(3-methylpyrazin-2-yl)-1,2,4-thiadiazol-5-amine]	0.06	0.058	< 0.19		24.5 (≈ 8.04 µg/mL)	2.7	2.7	100	94	
Cc1cccnc1N(C)c1nc(-c2ccc(OC(C)C)cn2)ns1 [Compound 42, 3-(5-Isopropoxypyridin-2-yl)-N-methyl-N-(3-methylpyridin-2-yl)-1,2,4-thiadiazol-5-amine]	0.2	0.21	0.36	0.357	33.5 (≈ 11.4 µg/mL)	2.35	2.35	81	96	0.212
Cc1cccnc1N(c1nc(-c2ccc(OC(C)C)cn2)ns1)C(C)C [Compound 43, 3-(5-Isopropoxypyridin-2-yl)-N-isopropyl-N-(3-methylpyridin-2-yl)-1,2,4-thiadiazol-5-amine]	3.3		3.4		118 (≈ 43.6 µg/mL)	3.1	3.1	60	79	
CC(C)Oc1ccc(-c2nsc(N(C)c3ncccc3C(C)C)n2)nc1 [Compound 44, 3-(5-Isopropoxypyridin-2-yl)-N-(3-isopropylpyridin-2-yl)-N-methyl-1,2,4-thiadiazol-5-amine]	1.67		1.4		121 (≈ 44.7 µg/mL)	3	3	4	32	
